Measured values published in PubChem BioAssay (NCI).
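Assay format: 96-well plates, 48-hour exposure. The concentration for full growth arrest is given as TGI.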

Key:
Assay in all cases: NCI-60 cell line screen, 48 h
[1] = system: SR leukemia
[2] = system: LOX IMVI melanoma
[3] = system: MCF7 breast
[4] = system: KM12 colon
[5] = system: NCI-H23 lung
[6] = system: MDA-N
[7] = system: DMS 114 small cell lung
[8] = system: IGROV1 ovarian
[9] = system: NCI/ADR-RES ovarian
[10] = system: CAKI-1 renal
[11] = system: NCI-H522 lung
[12] = system: MDA-MB-435
[13] = system: COLO 205 colon
[14] = system: NCI-H460 lung
[15] = system: DU-145 prostate
[16] = system: M14 melanoma
[17] = system: SK-MEL-28 melanoma
[18] = system: SF-268 CNS
[19] = system: RPMI-8226 leukemia
[20] = system: RXF 393 renal
[21] = system: NCI-H226 lung
[22] = system: KM20L2 colon
[23] = system: HT29 colon
[24] = system: SK-OV-3 ovarian
[25] = system: SN12C renal
[26] = system: HOP-62 NSCLC
[27] = system: SW-620 colon
[28] = system: OVCAR-4 ovarian
[29] = system: SNB-78 CNS
[30] = system: SF-295 CNS
[31] = system: HCT-116 colon
[32] = system: EKVX NSCLC
[33] = system: OVCAR-5 ovarian
[34] = system: UO-31 renal
[35] = system: HOP-92 NSCLC
[36] = system: T-47D breast
[37] = system: UACC-257 melanoma
[38] = system: 786-0 renal
[39] = system: M19-MEL melanoma
[40] = system: SNB-75 CNS
[41] = system: ACHN renal
[42] = system: OVCAR-8 ovarian
[43] = system: A498 renal
[44] = system: HS 578T breast
[45] = system: K-562 leukemia
[46] = system: HL-60(TB) leukemia
[47] = system: U251 CNS
[48] = system: CCRF-CEM leukemia
[49] = system: SNB-19 CNS
[50] = system: SF-539 CNS
[51] = system: SK-MEL-2 melanoma
[52] = system: A549 NSCLC
[53] = system: SK-MEL-5 melanoma
[54] = system: MOLT-4 leukemia
[55] = system: HCT-15 colon
[56] = system: TK-10 renal
[57] = system: LXFL 529 NSCLC
[58] = system: HCC-2998 colon
[59] = system: OVCAR-3 ovarian
[60] = system: PC-3 prostate
[61] = system: MDA-MB-231 breast
[62] = system: DMS 273 small cell lung
[63] = system: UACC-62 melanoma
[64] = system: DLD-1 colon
[65] = system: MALME-3M melanoma

Measured: TGI

CCCN=Cc1c(O)c(O)c(C(C)C)c2cc(C)c(-c3c(C)cc4c(C(C)C)c(O)c(O)c(C=NCCC)c4c3O)c(O)c12
4.54 µM: [7]
93.6 µM: [25]
24.5 µM: [2]
> 78.3 µM: [17]
8.51 µM: [35]
> 28.8 µM: [50]
44.3 µM: [58]
> 32.6 µM: [4]
7.44 µM: [51]
49.1 µM: [53]
> 30.7 µM: [41]
> 77.4 µM: [26]
> 81.9 µM: [5]
44.8 µM: [47]
> 24.7 µM: [30]
20.1 µM: [39]
48.1 µM: [55]
> 21 µM: [16]
> 50.3 µM: [33]
> 24.4 µM: [59]
> 23.6 µM: [46]
39.3 µM: [38]
13.4 µM: [29] | [48]
62.2 µM: [60]
> 61.1 µM: [14]
> 30.8 µM: [24]
71.1 µM: [3]
16.5 µM: [20]
> 82.7 µM: [45]
22.6 µM: [34]
> 24.9 µM: [23]
14.7 µM: [57]
> 70.1 µM: [54]
> 32.3 µM: [13]
5.73 µM: [11]
> 40.1 µM: [37]
14.3 µM: [31]
65.3 µM: [43]
47.8 µM: [21]
not listed: [62] | [63] | [64] | [65]
> 100 µM: all other assays above

COC1=C(OC)C(O)(c2ccccc2)C1=O (stereo not drawn)
> 100 µM: [1] | [4] | [5] | [8] | [11] | [14] | [16] | [17] | [18] | [20] | [62] | [23] | [24] | [26] | [29] | [30] | [32] | [33] | [34] | [35] | [37] | [39] | [41] | [42] | [43] | [46] | [47] | [48] | [49] | [52] | [54]
85.7 µM: [56]

N#Cc1ccccc1NC(=O)/C(=N\Nc1ccc([N+](=O)[O-])cc1)C1C(=O)NC(=O)NC1=O
74.8 µM: [35]
not listed: [1] | [3] | [6] | [9] | [12] | [15] | [21] | [23] | [25] | [30] | [36] | [44] | [60] | [61] | [62]
> 100 µM: all other assays above
